Reference: ChEMBL document CHEMBL3734667 (Bioorg Med Chem, 2015)

What was measured:
[1] = Cytotoxicity against human MT4 cells assessed as cell viability after 96 hrs by MTT assay; assay type: cell-based
[2] = Cytotoxicity against MDBK cells assessed as cell viability after 48 to 96 hrs by MTT assay; assay type: cell-based, Bos taurus; conditions: cattle
[3] = Cytotoxicity against BHK cells assessed as cell viability after 48 to 96 hrs by MTT assay; assay type: cell-based, Mesocricetus auratus; conditions: hamster
[4] = Cytotoxicity against african green monkey Vero 76 cells assessed as cell viability after 48 to 96 hrs by crystal violet staining method; assay type: cell-based; conditions: chlorocebus sabaeus
[5] = tested on: Bovine viral diarrhea virus 1; assay: Antiviral activity against BVDV infected in MDBK cells assessed as inhibition of virus-induced cytopathogenicity after 3 to 4 days by MTT assay; assay type: functional, organism-based; conditions: Bovine viral diarrhea virus isolates and strains
Yellow fever virus = assay: Antiviral activity against YFV infected in BHK-21 cells assessed as inhibition of virus-induced cytopathogenicity after 3 to 4 days by MTT assay; assay type: functional, organism-based
[6] = tested on: Mammalian orthoreovirus 1; assay: Antiviral activity against Reo-1 virus infected in BHK-21 cells assessed as inhibition of virus-induced cytopathogenicity after 3 to 4 days by MTT assay; assay type: functional, cell-based; conditions: Mammalian orthoreovirus 1, BHK-21
Coxsackievirus B5 = assay: Antiviral activity against human CVB5 infected in african green monkey Vero76 cells assessed as inhibition of virus-induced cytopathogenicity after 3 days by plaque reduction assay; assay type: functional, organism-based; conditions: Enterovirus B, Vero 76, 72 h
Human orthopneumovirus = assay: Antiviral activity against human RSV infected in african green monkey Vero76 cells assessed as inhibition of virus-induced cytopathogenicity after 5 days by plaque reduction assay; assay type: functional, organism-based; conditions: human respiratory syncytial virus, Vero 76, 120 h
Poliovirus 1 = assay: Antiviral activity against Human poliovirus 1 Sabin infected in african green monkey Vero76 cells assessed as inhibition of virus-induced cytopathogenicity by plaque reduction assay; assay type: functional, organism-based; conditions: Enterovirus C, Vero 76
[7] = tested on: Human immunodeficiency virus 1; assay: Antiviral activity against HIV-1 infected in MT4 cells assessed as inhibition of virus-induced cytopathogenicity after 4 days by MTT assay; assay type: functional, organism-based; conditions: Human immunodeficiency virus 1, MT4, 96 h
Human alphaherpesvirus 1 = assay: Antiviral activity against HSV1; assay type: functional, organism-based
[8] = tested on: Vesicular stomatitis virus; assay: Antiviral activity against VSV; assay type: functional, organism-based
Vaccinia virus = assay: Antiviral activity against Vaccinia virus; assay type: functional, organism-based; conditions: Orthopoxvirus vaccinia
[9] = Selectivity index, ratio of CC50 for african green monkey Vero76 cells to EC50 for human RSV; set-up: species or system human respiratory syncytial virus, Vero 76

Compound | CC50 at 96 h [1] [µM] | CC50 [2] [µM] | CC50 [3] [µM] | CC50 [4] [µM] | EC50 [5] [µM] | EC50 (Yellow fever virus) [µM] | EC50 [6] [µM] | EC50 (Coxsackievirus B5) [µM] | EC50 (Human orthopneumovirus) [µM] | EC50 (Poliovirus 1) [µM] | EC50 [7] [µM] | EC50 (Human alphaherpesvirus 1) [µM] | EC50 [8] [µM] | EC50 (Vaccinia virus) [µM] | Ratio CC50/EC50 [9]
Clc1cc2nn(Cc3ccccc3)nc2cc1Cl | > 100 | > 100 | > 100 | > 100 | > 100 | > 100 | > 100 | > 100 | > 100 | > 100 | > 100 | > 100 | > 100 | > 100 | –
COc1ccc2nn(-c3ccc(OC(C)(C)C(=O)O)cc3)nc2c1 | > 100 | ≥ 100 | > 100 | 90 | > 100 | > 100 | – | > 100 | 20 | > 100 | > 100 | – | > 100 | > 100 | 4.5
Clc1cc2nn(C3CCCCO3)nc2cc1Cl (stereo not drawn) | > 100 | > 100 | > 100 | ≥ 100 | > 100 | > 100 | > 100 | – | – | 60 | > 100 | > 100 | > 100 | – | –
Cc1cc2nn(C3CCCO3)nc2cc1C (stereo not drawn) | > 100 | > 100 | > 100 | > 100 | > 100 | > 100 | > 100 | – | – | > 100 | > 100 | > 100 | > 100 | – | –
FC(F)(F)c1ccc2nn(Cc3ccc(Cl)cc3)nc2c1 | > 100 | > 100 | > 100 | > 100 | > 100 | > 100 | > 100 | > 100 | > 100 | > 100 | > 100 | > 100 | > 100 | > 100 | –
Clc1ccc(Cn2nc3cc(Cl)c(Cl)cc3n2)cc1 | > 100 | > 100 | > 100 | > 100 | > 100 | > 100 | > 100 | > 100 | > 100 | > 100 | > 100 | > 100 | > 100 | > 100 | –
COc1ccc(Cn2nnc3cc(Cl)c(Cl)cc32)cc1 | > 100 | > 100 | > 100 | > 100 | > 100 | > 100 | > 100 | > 100 | > 100 | > 100 | > 100 | > 100 | > 100 | > 100 | –
COc1ccc(Cn2nc3cc(Cl)c(Cl)cc3n2)cc1 | > 100 | > 100 | > 100 | > 100 | > 100 | > 100 | > 100 | > 100 | > 100 | > 100 | > 100 | > 100 | > 100 | > 100 | –
FC(F)(F)c1ccc2nn(Cc3ccccc3)nc2c1 | > 100 | > 100 | > 100 | > 100 | > 100 | > 100 | > 100 | > 100 | > 100 | > 100 | > 100 | > 100 | > 100 | > 100 | –
COc1ccc(Cn2nc3ccc(C(F)(F)F)cc3n2)cc1 | > 100 | > 100 | > 100 | > 100 | > 100 | > 100 | > 100 | > 100 | > 100 | > 100 | > 100 | > 100 | > 100 | > 100 | –
